# US20230416275A1, “MODULATORS OF CYSTIC FIBROSIS TRANSMEMBRANE CONDUCTANCE REGULATOR” (VERTEX PHARMACEUTICALS INCORPORATED, priority 2020, published 2023)
# pEC50: −log10 of the molar value. Like-named read-outs stand apart in the source and are kept apart here.
# What was measured:
# [1] = target: T1, CFTR-mediated chloride transport in human intestinal epithelial enteroid cells (Homo sapiens, UniProt P13569); assay: Membrane potential dye, Enteroid Assay A; type: cell-based; conditions: for Ent. A Max Activity (%): % of chloride transport of triple combination control (3 μM N-[(6-amino-2-pyridyl)sulfonyl]-6-(3-fluoro-5-isobutoxy-phenyl)-2-[(4S)-2,2,4-trimethylpyrrolidin-1-yl]pyridine-3-carboxamide, 3 μM tezacaftor, 300 nM acute ivacaftor); for pEC50: enteroid cells, 18-24 hours incubation, acute 10 μM forskolin and 300 nM ivacaftor, read-out: Ent. A EC50
# T1 sequence (P13569 with tags, fused parts or gaps DEL508-508): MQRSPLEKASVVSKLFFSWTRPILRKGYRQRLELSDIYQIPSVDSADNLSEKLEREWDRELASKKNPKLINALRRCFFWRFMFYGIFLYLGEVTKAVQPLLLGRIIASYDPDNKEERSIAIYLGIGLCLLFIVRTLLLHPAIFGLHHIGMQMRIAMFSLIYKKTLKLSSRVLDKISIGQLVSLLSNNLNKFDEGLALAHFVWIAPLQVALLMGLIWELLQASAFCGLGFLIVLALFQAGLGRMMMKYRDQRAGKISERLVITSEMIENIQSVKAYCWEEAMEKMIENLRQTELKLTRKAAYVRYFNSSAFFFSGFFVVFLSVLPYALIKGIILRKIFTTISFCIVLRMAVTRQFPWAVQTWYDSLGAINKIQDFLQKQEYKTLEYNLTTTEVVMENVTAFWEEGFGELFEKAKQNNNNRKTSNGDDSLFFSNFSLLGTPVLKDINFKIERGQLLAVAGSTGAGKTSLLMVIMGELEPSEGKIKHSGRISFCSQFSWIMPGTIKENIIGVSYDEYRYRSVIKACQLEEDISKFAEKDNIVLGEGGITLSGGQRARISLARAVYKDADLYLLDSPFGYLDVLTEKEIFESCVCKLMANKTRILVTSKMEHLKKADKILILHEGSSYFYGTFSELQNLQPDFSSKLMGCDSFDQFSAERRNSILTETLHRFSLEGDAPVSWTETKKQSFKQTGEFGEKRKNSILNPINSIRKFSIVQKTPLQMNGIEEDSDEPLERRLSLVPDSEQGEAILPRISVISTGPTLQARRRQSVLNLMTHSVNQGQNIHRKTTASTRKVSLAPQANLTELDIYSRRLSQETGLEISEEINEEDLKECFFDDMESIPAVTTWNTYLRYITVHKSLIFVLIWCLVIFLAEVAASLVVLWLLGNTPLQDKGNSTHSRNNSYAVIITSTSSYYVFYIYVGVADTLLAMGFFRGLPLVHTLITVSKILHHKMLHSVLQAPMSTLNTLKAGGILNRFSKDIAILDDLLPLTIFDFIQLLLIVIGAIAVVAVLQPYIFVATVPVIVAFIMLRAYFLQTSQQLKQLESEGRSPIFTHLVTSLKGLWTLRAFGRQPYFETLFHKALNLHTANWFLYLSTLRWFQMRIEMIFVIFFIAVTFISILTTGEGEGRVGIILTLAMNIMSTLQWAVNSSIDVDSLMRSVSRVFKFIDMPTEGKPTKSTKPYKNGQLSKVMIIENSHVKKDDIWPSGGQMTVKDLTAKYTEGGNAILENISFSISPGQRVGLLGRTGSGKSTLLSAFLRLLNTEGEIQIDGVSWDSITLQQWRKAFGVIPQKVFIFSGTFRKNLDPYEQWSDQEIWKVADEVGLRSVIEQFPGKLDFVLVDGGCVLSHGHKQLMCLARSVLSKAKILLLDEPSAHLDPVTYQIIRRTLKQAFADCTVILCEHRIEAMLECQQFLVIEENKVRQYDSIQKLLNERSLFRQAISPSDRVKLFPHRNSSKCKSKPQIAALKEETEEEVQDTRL
# Procedure, shortened: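 Enteroids seeded at 5000 cells/well were exposed to test compound in IEMM for 18-24 h at 37 °C, then loaded with methyl oxonol membrane potential dye. Chloride transport was triggered in chloride-free buffer with 10 μM forskolin, 100 μM IBMX and 300 nM Compound III, read by fluorescence for 15 min and expressed as % of a triple-combination control.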
# F508del in NIH 3T3 cells = target: T2, F508del in NIH 3T3 cells (Homo sapiens, UniProt P13569, DEL508-508); assay: 3T3 assay: membrane potential optical assay for F508del correction; type: cell-based, mouse; conditions: for pEC50: F508del NIH 3T3 cells, compound incubation 18-24 hours at 37° C., forskolin activation, read-out: 3T3 EC50; for Emax: NIH3T3, F508del NIH 3T3 cells, efficacy compared to lumacaftor in combination with acutely added 300 nM Ivacaftor, read-out: 3T3 Max Activity (%)
# T2 construct: expressed in transfected cells
# T2 sequence (P13569 with tags, fused parts or gaps DEL508-508): as above
# Procedure, shortened: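 NIH3T3 mouse fibroblasts stably expressing F508del incubated with corrector compounds at a range of concentrations for 16-24 h at 37 °C, then loaded with voltage-sensing redistribution dye. Single addition of forskolin with Cl− gradient (chloride-free gluconate bath vs. NaCl bath, pH 7.4); membrane potential change read by fluorescence on FLIPR.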
# CFTR = CFTR (Homo sapiens, UniProt P13569); assay: standard Ussing Chamber Assay for CFTR potentiator activity; type: cell-based
# Chain of CFTR (P13569 whole entry, species assumed): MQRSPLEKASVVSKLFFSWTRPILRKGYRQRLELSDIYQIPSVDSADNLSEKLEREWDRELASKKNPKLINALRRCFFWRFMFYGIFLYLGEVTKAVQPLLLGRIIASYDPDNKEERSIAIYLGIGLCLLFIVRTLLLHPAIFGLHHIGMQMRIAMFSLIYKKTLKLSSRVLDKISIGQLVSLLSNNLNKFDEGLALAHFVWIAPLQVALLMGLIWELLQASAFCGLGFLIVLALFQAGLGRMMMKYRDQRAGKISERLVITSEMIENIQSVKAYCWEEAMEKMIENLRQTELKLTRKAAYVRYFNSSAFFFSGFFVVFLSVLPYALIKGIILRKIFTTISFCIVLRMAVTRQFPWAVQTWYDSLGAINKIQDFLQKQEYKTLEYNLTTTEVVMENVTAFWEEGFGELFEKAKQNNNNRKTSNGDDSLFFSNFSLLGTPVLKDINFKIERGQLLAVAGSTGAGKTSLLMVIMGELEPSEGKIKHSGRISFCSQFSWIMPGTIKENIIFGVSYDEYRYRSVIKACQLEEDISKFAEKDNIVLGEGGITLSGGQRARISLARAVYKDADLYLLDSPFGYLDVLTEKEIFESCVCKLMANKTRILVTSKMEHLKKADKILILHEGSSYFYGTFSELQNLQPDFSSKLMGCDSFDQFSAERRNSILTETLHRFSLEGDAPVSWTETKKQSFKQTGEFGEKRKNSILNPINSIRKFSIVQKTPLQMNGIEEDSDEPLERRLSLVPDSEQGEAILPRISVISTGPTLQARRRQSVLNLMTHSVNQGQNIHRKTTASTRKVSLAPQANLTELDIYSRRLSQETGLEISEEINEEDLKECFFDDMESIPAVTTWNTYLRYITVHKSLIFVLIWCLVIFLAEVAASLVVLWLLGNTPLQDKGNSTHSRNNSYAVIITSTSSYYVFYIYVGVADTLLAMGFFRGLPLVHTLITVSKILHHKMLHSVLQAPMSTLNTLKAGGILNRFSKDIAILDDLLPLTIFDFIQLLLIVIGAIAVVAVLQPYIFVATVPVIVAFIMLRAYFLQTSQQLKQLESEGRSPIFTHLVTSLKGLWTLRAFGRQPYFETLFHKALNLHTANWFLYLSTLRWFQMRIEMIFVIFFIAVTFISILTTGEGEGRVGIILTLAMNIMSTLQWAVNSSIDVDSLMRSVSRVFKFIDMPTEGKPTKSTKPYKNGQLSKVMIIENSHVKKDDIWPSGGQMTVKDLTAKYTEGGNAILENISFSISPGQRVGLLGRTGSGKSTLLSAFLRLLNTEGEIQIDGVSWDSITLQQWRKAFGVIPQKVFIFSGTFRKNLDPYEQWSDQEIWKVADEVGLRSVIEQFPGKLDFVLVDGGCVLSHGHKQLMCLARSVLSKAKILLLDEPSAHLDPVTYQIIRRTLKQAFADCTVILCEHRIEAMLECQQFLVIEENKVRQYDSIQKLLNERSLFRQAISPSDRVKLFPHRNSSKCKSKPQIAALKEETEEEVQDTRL
# Method: tert-Butyl N-[(6R,12R)-6-benzyloxy-12-methyl-6,15-bis(trifluoromethyl)-13,19-dioxa-3,4,18-triazatricyclo[12.3.1.12,5]nonadeca-1(18),2,4,14,16-pentaen-17-yl]-N-tert-butoxycarbonyl-carbamate (8.6 g, 11.77 mmol) was dissolved in ethanol (172 mL) then the flask was cycled 3 times between vacuum/nitrogen. Treated the mixture with 10% Pd/C (50% water wet, 1.8 g of 5% w/w, 0.8457 mmol) then cycled 3 times between vacuum/nitrogen and 3 times between vacuum/hydrogen and then stirred vigorously under hydrogen (balloon) at room temperature for 18 hours. The mixture was cycled 3 times between vacuum/nitrogen, filtered over Celite, washing with ethanol, and then the filtrate was evaporated to give 7.3 g of tert-butyl N-tert-butoxycarbonyl-N-[(6R,12R)-6-hydroxy-12-methyl-6,15-bis(trifluoromethyl)-13,19-dioxa-3,4,18-triazatricyclo[12.3.1.12,5]nonadeca-1(18),2,4,14,16-pentaen-17-yl]carbamate an off-white solid. 1H NMR and MS confirmed the expected product. CFTR modulatory activity was confirmed using a standard Ussing Chamber Assay for CFTR potentiator activity.
# [2] = target: T1, CFTR-mediated chloride transport in human intestinal epithelial enteroid cells; assay: Membrane potential dye, Enteroid Assay B; type: cell-based; conditions: for Ent. B Max Activity (%): % of chloride transport of triple combination control (1 μM (14S)-8-[3-(2-{Dispiro[2.0.2.1]heptan-7-yl}ethoxy)-1H-pyrazol-1-yl]-12,12-dimethyl-... macrocycle, 3 μM tezacaftor, 300 nM acute ivacaftor); for pEC50: enteroid cells, 18-24 hours incubation, acute 10 μM forskolin and 300 nM ivacaftor, read-out: Ent. B EC50
# Method: Base medium (ADF+++) consisted of Advanced DMEM/Ham's F12, 2 mM Glutamax, 10 mM HEPES, […] penicillin/streptomycin.
# Intestinal enteroid maintenance medium (IEMM) consisted of ADF+++, 1×B27 supplement, 1×N2 supplement, 1.25 mM N-acetyl cysteine, 10 mM Nicotinamide, 50 ng/mL hEGF, 10 nM Gastrin, 1 μg/mL hR-spondin-1, 100 ng/mL hNoggin, TGF-b type 1 inhibitor A-83-01, 100 μg/mL Primocin, 10 μM P38 MAPK inhibitor SB202190.
# Bath 1 Buffer consisted of 1 mM MgCl2, 160 mM NaCl, 4.5 mM KCl, 10 mM HEPES, 10 mM Glucose, 2 mM CaCl2.
# Chloride Free Buffer consisted of 1 mM Magnesium Gluconate, 2 mM Calcium Gluconate, 4.5 mM Potassium Gluconate, 160 mM Sodium Gluconate, 10 mM HEPES, 10 mM Glucose.
# Bath1 Dye Solution consisted of Bath 1 Buffer, 0.04% Pluronic F127, 20 μM Methyl Oxonol, 30 μM CaCCinh-A01, 30 μM Chicago Sky Blue.
# Chloride Free Dye Solution consisted of Chloride Free Buffer, 0.04% Pluronic F127, 20 μM Methyl Oxonol, 30 μM CaCCinh-A01, 30 μM Chicago Sky Blue.
# Chloride Free Dye Stimulation Solution consisted of Chloride Free Dye Solution, 10 μM forskolin, 100 μM IBMX, and 300 nM Compound III.
# Human intestinal epithelial enteroid cells were obtained from the Hubrecht Institute for Developmental Biology and Stem Cell Research, Utrecht, The Netherlands and expanded in T-Flasks as previously described (Dekkers J F, Wiegerinck C L, de Jonge H R, Bronsveld I, Janssens H M, de Winter-de Groot K M, Brandsma A M, de Jong N W M, Bijvelds M J C, Scholte B J, Nieuwenhuis E E S, van den Brink S, Clevers H, van der Ent C K, Middendorp S and M Beekman J M. A functional CFTR assay using primary cystic fibrosis intestinal organoids. Nat Med. 2013 July; 19(7):939-45).
# c. Enteroid Cell Harvesting and Seeding
# Cells were recovered in cell recovery solution, collected by centrifugation at 650 rpm for 5 minutes at 4° C., resuspended in TrypLE and incubated for 5 minutes at 37° C. Cells were then collected by centrifugation at 650 rpm for 5 minutes at 4° C. and resuspended in IEMM containing 10 μM ROCK inhibitor (RI). The cell suspension was passed through a 40 μm cell strainer and resuspended at 1×10^6 cells/mL in IEMM containing 10 μM RI. Cells were seeded at 5000 cells/well into multi-well plates and incubated for overnight at 37° C., 95% humidity and 5% CO2 prior to assay.
# e. Membrane Potential Dye, Enteroid Assay B
# Enteroid cells were incubated with test compound in IEMM for 18-24 hours at 37° C., 95% humidity and 5% CO2. […] Briefly, cells were washed 5 times in Bath 1 Buffer. Bath 1 Dye Solution was added and the cells were incubated for 25 minutes at room temperature. Following dye incubation, cells were washed 3 times in Chloride Free Dye Solution. Chloride transport was initiated by addition of Chloride Free Dye Stimulation Solution and the fluorescence signal was read for 15 minutes. […] Chloride transport was then expressed as a percentage of the chloride transport following treatment with 1 μM (14S)-8-[3-(2-{Dispiro[2.0.2.1]heptan-7-yl}ethoxy)-1H-pyrazol-1-yl]-12,12-dimethyl-2λ^6-thia-3,9,11,18,23-pentaazatetracyclo[17.3.1.111,14.05,10]tetracosa-1(22),5,7,9,19(23),20-hexaene-2,2,4-trione, 3 μM (R)-1-(2,2-difluorobenzo[d][1,3]dioxol-5-yl)-N-(1-(2,3-dihydroxypropyl)-6-fluoro-2-(1-hydroxy-2-methylpropan-2-yl)-1H-indol-5-yl)cyclopropanecarboxamide and 300 nM acute N-[2,4-bis(1,1-dimethylethyl)-5-hydroxyphenyl]-1,4-dihydro-4-oxoquinoline-3-carboxamide triple combination control (% Activity).
# [3] = amide bond; 14-membered ring; HATU/DIEA; DMF; 3 steps
structure (smiles),measurement,setting,value
"Cc1cccc(C)c1-c1cc2nc(n1)NS(=O)(=O)c1cccc(c1)NC(=O)CCCc1cccc(c1)O2 [Compound 65, 5-(2,6-Dimethylphenyl)-9,9-dioxo-2-oxa-9λ^6-thia-6,8,15,26-tetraazatetracyclo[18.3.1.13,7.110,14]hexacosa-1(23),3,5,7(26),10(25),11,13,20(24),21-nonaen-16-one]",Ent. A Max Activity (%),[1],+++ (+++ is >60%)
same,pEC50,[1],5.52 to 6.00
same,"ring closure, yield after HPLC","from Cc1cccc(C)c1-c1cc(Oc2cccc(CCCC(=O)O)c2)nc(NS(=O)(=O)c2cccc(N)c2)n1, amide bond, 17-membered ring, HATU/DIEA, DMF, 56.8 mM, 0.033 h",28%
same,pEC50,F508del in NIH 3T3 cells,> 6.00
same,Emax,F508del in NIH 3T3 cells,> 60%
"C[C@@H]1CCCCC[C@](O)(C(F)(F)F)C2=NN=C(O2)c2nc(c(C(F)(F)F)cc2N)O1 [(6R,12R)-17-amino-12-methyl-6,15-bis(trifluoromethyl)-13,19-dioxa-3,4,18-triazatricyclo[12.3.1.12,5]nonadeca-1(18),2,4,14,16-pentaen-6-ol]",CFTR modulatory activity,CFTR,confirmed
"Cc1cccc(C)c1-c1cc2nc(n1)NS(=O)(=O)c1cccc(c1)COC1CC(CN(C(=O)OC(C)(C)C)C1)O2 (stereo not shown) [Compound 119, tert-Butyl 19-(2,6-dimethylphenyl)-15,15-dioxo-2,8-dioxa-15λ^6-thia-5,16,18,21-tetraazatetracyclo[15.3.1.13,7.110,14]tricosa-1(21),10,12,14(22),17,19-hexaene-5-carboxylate]",Ent. A Max Activity (%),[1],+ (+ is <30%)
same,"ring closure, yield after HPLC","from tert-butyl 3,5-dihydroxypiperidine-1-carboxylate + 3-(bromomethyl)-N-[4-chloro-6-(2,6-dimethylphenyl)pyrimidin-2-yl]benzenesulfonamide?, snar bond, 14-membered ring, NaH, DMF, 50.0 mM, 2 steps",15%
"Cc1ccc2cc1Oc1cc(-c3c(C)cccc3C)nc(n1)NS(=O)(=O)c1cccc(c1)NC(=O)CC2 [Compound 66, 5-(2,6-Dimethylphenyl)-22-methyl-9,9-dioxo-2-oxa-9λ^6-thia-6,8,15,25-tetraazatetracyclo[17.3.1.13,7.110,14]pentacosa-1(22),3,5,7(25),10(24),11,13,19(23),20-nonaen-16-one]",Ent. A Max Activity (%),[1],+++ (+++ is >60%)
same,pEC50,[1],5.52 to 6.00
same,"ring closure, yield after HPLC","amide bond, 16-membered ring, none (thermal, isolated OPfp ester), NMP, 67.6 mM, 100.0 °C, 4 steps",6%
same,pEC50,F508del in NIH 3T3 cells,> 6.00
same,Emax,F508del in NIH 3T3 cells,> 60%
"Cc1cccc(C)c1-c1cc2nc(n1)NS(=O)(=O)c1cccc(c1)NC(=O)c1cc(ccc1Cl)O2 [Compound 55, 18-chloro-5-(2,6-dimethylphenyl)-9,9-dioxo-2-oxa-9λ^6-thia-6,8,15,23-tetraazatetracyclo[15.3.1.13,7.110,14]tricosa-1(21),3,5,7(23),10(22),11,13,17,19-nonaen-16-one]",Ent. A Max Activity (%),[1],+++ (+++ is >60%)
same,pEC50,[1],5.52 to 6.00
same,"ring closure, yield after HPLC","from Cc1cccc(C)c1-c1cc(Oc2ccc(Cl)c(C(=O)O)c2)nc(NS(=O)(=O)c2cccc(N)c2)n1, amide bond, 14-membered ring, HATU/DIEA, 1.0 h",38%
same,pEC50,F508del in NIH 3T3 cells,> 6.00
same,Emax,F508del in NIH 3T3 cells,> 60%
"Cc1cccc(C)c1-c1cc2nc(n1)NS(=O)(=O)c1cncc(c1)NC(=O)C1CC(CN(C(=O)OC(C)(C)C)C1)O2 (racemic) [Compound 14, tert-Butyl 19-(2,6-dimethylphenyl)-8,15,15-trioxo-2-oxa-15λ^6-thia-5,9,12,16,18,21-hexaazatetracyclo[15.3.1.13,7.110,14]tricosa-1(21),10,12,14(22),17,19-hexaene-5-carboxylate]",Ent. A Max Activity (%),[1],+ (+ is <30%)
same,pEC50,[1],> 6.00
same,"ring closure, yield after HPLC","from Cc1cccc(C)c1-c1cc(OC2CC(C(=O)Oc3c(F)c(F)c(F)c(F)c3F)CN(C(=O)OC(C)(C)C)C2)nc(NS(=O)(=O)c2cncc(N)c2)n1, amide bond, 14-membered ring, none (thermal, OPfp ester), NMP, 12.1 mM, 140.0 °C, 5.0 h, 5 steps",1%
Cc1cccc(C)c1-c1cc2nc(n1)NS(=O)(=O)c1cccc(c1)OCCCO2 [Compound 122],Ent. B Max Activity (%),[2],+ (+ is <30%)
same,pEC50,[2],4.52 to 5.52
Cc1cccc(C)c1-c1cc2nc(n1)NS(=O)(=O)c1cccc(c1)NC(=O)c1cc(ccc1Br)O2,"ring closure, isolated yield",[3],20%
"Cc1cccc(C)c1-c1cc2cc(n1)NS(=O)(=O)c1cccc(c1)NC(=O)c1cccc(c1)O2 [Compound 77, 5-(2,6-Dimethylphenyl)-9,9-dioxo-2-oxa-9λ^6-thia-6,8,15-triazatetracyclo[15.3.1.13,7.110,14]tricosa-1(20),3,5,7(23),10(22),11,13,17(21),18-nonaen-16-one]",Ent. A Max Activity (%),[1],++ (++ is 30-60%)
same,pEC50,[1],4.52 to 5.52
same,"ring closure, yield after HPLC","amide bond, 14-membered ring, HATU/DIEA, DMF, 130.0 mM",60%
same,pEC50,F508del in NIH 3T3 cells,> 6.00
same,Emax,F508del in NIH 3T3 cells,> 60%
Cc1cccc(C)c1-c1cc2nc(n1)NS(=O)(=O)c1cccc(c1)OC(c1ccccc1)CCO2 (stereo not shown) [Compound 121],Ent. B Max Activity (%),[2],+++ (+++ is >60%)
same,pEC50,[2],> 6.00
Cc1cccc(C)c1-c1cc2nc(n1)NS(=O)(=O)c1cccc(c1)NC(=O)c1cccc(c1C)O2,"ring closure, isolated yield",[3],33%
Cc1cccc(C)c1-c1cc2nc(n1)NS(=O)(=O)c1cccc(c1)OC(Cc1ccccc1)CCO2 (stereo not shown) [Compound 120],Ent. B Max Activity (%),[2],++ (++ is 30-60%)
same,pEC50,[2],> 6.00
